From patent publication US8093430B2, “Methods of inhibiting ethylene responses in plants using cyclopropene amine compounds” (North Carolina State University, priority 2007, dated 2012)
Like-named read-outs stand apart in the source and are kept apart here.

Key:
bananas [1] = assay: Minimum amount of cyclopropene as a gas required to protect bananas from ethylene; assay type: in vivo, Musa paradisiaca L; conditions: for minimum concentration required for protection of bananas: 24 hour exposure, compound as a gas; for Minimum Concentration: amount of compound as a gas that would protect bananas by a 24 hour exposure; for minimum protection value: as a gas, restated with FIG. 3
Method: Untreated mature green bananas (Musa paradisiaca L) from Costa Rica which were ready for market were obtained from the local Farmers Market and were kept at 14.5° C. until use. Bananas were used within 24 hours of arrival. Experiments were conducted at approximately 22-23° C. No damaged fruit were used in the experiments. […] The jars were then vented and ethylene was injected and allowed to stand for a minimum of 15 hours and then allowed to stand at 23° C. until ethylene responses developed. For gaseous phase treatment, the compound is applied to bananas by pipetting solution onto filter paper. Filter paper is used to increase surface area in a 3 L jar. The jar is sealed for 24 hours to give enough time to diffuse through plant tissue to the ethylene binding sites. 333 ul/L of ethylene gas is added to the jars. The jars are then resealed for 15 hours. This allows for maximal exposure to ethylene to measure effectiveness of the compounds. Firmness was recorded over a number of days. Disappearance of chlorophyll was determined by extracting chlorophyll from banana peels. Absorbance was measured in a spectrometer. The minimum amount of cyclopropene necessary to protect bananas from ethylene was determined after the bananas had been exposed to the compound for 24 hours. Following this time, the fruits were vented for 10 minutes and then exposed to 333 ? l^-I of ethylene gas treatment. This has been the procedure for most other studies involving cyclopropene compounds and bananas. This time was used so that a reasonable comparison could be made with previous work ([…]. et al. 1996 a; 1996b; 1999; 2001; 2003). (See […]., et al., Effect of 1-methylcyclopropene, and methylenecyclopropene on ethylene binding and ethylene action in cut carnations, Plant Growth Reg., 18, 79-86, (1996a); […]., et al., The effect of chemical structure on the antagonism by cyclopropenes of ethylene responses in banana, Plant Growth Reg., 33, 107-110 (2001); […]., et al., 1-Substituted cyclopropenes: Effective blocking agents for ethylene action in plants, Plant Growth Reg. 40, 221-228 (2003)).

bananas [2] = assay: Time of protection of bananas against ethylene; assay type: in vivo, Musa paradisiaca L
Method: Untreated mature green bananas (Musa paradisiaca L) from Costa Rica which were ready for market were obtained from the local Farmers Market and were kept at 14.5° C. until use. Bananas were used within 24 hours of arrival. Experiments were conducted at approximately 22-23° C. No damaged fruit were used in the experiments. Bananas were treated to an amount of compound believed to saturate the receptor sites (10 times the minimum amount for protection). The bananas were exposed for 24 hours then vented. They were kept on a laboratory bench and each day a sample was exposed to ethylene. The day the bananas were treated with ethylene and the day the bananas turned yellow and became soft were recorded. Generally, this observation occurred about 3 days after the ethylene treatment day. The treatment day the bananas first ripened was considered to be the time of protection.

[3] = cited from earlier work
bananas [4] = assay: Stability of the compound after 1 hour incubation with acids or salts at different pH, read by banana chlorophyll; assay type: physicochemical, Musa paradisiaca L; conditions: for Chlorophyll (% of control): readings at 7 days
Method: Chlorophyll was determined by the method of Arnon (Arnon, D I (1949) Copper content in isolated chloroplasts. Polyphenoloxidase in Beta vulgaris. Plant Physiology 24:1-15) or by using a reflective chlorophyll meter (Field Scout CM 1000 Spectronic Technologies Inc.). To extract chlorophyll, a measured area of peel was cut from representative areas of the peel and placed in boiling water for 3 minutes. The samples were then removed and blended with acetone. After standing overnight in the dark, they were filtered then concentrated in a hood and chlorophyll determined by the method of Arnon (1949) according to the procedures outlined by Holden (1965).
However, these compounds are thought to be unstable under very acidic conditions. Liao et al. in some synthetic procedures lower the pH to 1-3.

banana peel = assay: Protection of chlorophyll in banana peel by compound applied as salt (swab) or gas, then ethylene; assay type: in vivo, Musa paradisiaca L; conditions: for difference between the highest and lowest chlorophyll value of the concentration series: FIG. 3, acetate salts, series 1 to 2.5 times starting at 3 times the gas minimum, 24 hour exposure; for chlorophyll level in banana peels against concentration: FIG. 6A, treated using acetic acid
Method: Untreated mature green bananas (Musa paradisiaca L) from Costa Rica which were ready for market were obtained from the local Farmers Market and were kept at 14.5° C. until use. Bananas were used within 24 hours of arrival. Experiments were conducted at approximately 22-23° C. No damaged fruit were used in the experiments. […] The jars were then vented and ethylene was injected and allowed to stand for a minimum of 15 hours and then allowed to stand at 23° C. until ethylene responses developed. When the effect of the respective salts of the cyclopropenes were assayed, the salt was mixed with the desired amount of water containing Tween 20 as a wetting agent and the acid. Usually 200 μl of water, 20 μl of Tween 20 and 100 μl of 0.1 M acid and the compound dissolved in ether were used. These salts were applied to the banana. The peels were swabbed to spread the mixture and increase the exposed surface area. The bananas were placed in an unsealed 3-liter jar and allowed to stand 24 hours. In the case of the carbonate salt, the compound was exposed to carbon dioxide in water long enough for the salt to form. In this case, the carbonate salt was formed by mixing the compound dissolved in water with CO2. The concentration of CO2 in water at 1 atmosphere and 25° C. is reported to be 0.0338 M (Daniels and Alberty 1955) (See Daniels, F, et al., Physical Chemistry, John Wiley and Sons New York, 200 (1955). […] (See Cotton, et al., Advanced Inorganic Chemistry John Wiley and Sons. New York, 152 (1999). At the end of 24 hours, ethylene was injected and the jars were sealed. After 15 hours exposure, the bananas were removed and observed for several days for the effect of ethylene. An untreated check banana and a similar untreated banana treated with ethylene only were included in each experiment for comparison. For gaseous phase treatment, the compound is applied to bananas by pipetting solution onto filter paper. Filter paper is used to increase surface area in a 3 L jar. The jar is sealed for 24 hours to give enough time to diffuse through plant tissue to the ethylene binding sites. 333 ul/L of ethylene gas is added to the jars. The jars are then resealed for 15 hours. This allows for maximal exposure to ethylene to measure effectiveness of the compounds. Firmness was recorded over a number of days. Disappearance of chlorophyll was determined by extracting chlorophyll from banana peels. Absorbance was measured in a spectrometer. For aqueous phase (salts) treatment, compounds were alternatively tested by mixing the solutions in acid and a detergent. The detergent, Tween 20, was used as a wetting agent. Solutions were then applied at various concentrations to the banana with a cotton swab. Bananas were then sealed in a jar and treated in the same manner as with the gas compound procedures described above. Chlorophyll was determined by the method of Arnon (Arnon, D I (1949) Copper content in isolated chloroplasts. Polyphenoloxidase in Beta vulgaris. Plant Physiology 24:1-15) or by using a reflective chlorophyll meter (Field Scout CM 1000 Spectronic Technologies Inc.). To extract chlorophyll, a measured area of peel was cut from representative areas of the peel and placed in boiling water for 3 minutes. The samples were then removed and blended with acetone. After standing overnight in the dark, they were filtered then concentrated in a hood and chlorophyll determined by the method of Arnon (1949) according to the procedures outlined by Holden (1965). Banana peel samples were cut and mixed with acetone to extract chlorophyll. Samples were made in an ether solution and absorbance measured at 663 nm.

Petunia hybridia = assay: Protection of petunia flowers against ethylene; assay type: in vivo; conditions: 100 nl, gas or carbonate salt form, ethylene 24 hours, at 5 days, FIG. 8
Method: FIG. 8. Protection of flowers (Petunia hybridia) by N,N-dipropyl(1-cyclopropenylmethyl)amine (100 nl) as a gas or as the carbonate salt. Treatment included check (control), ethylene, gas form, salt form of N,N-dipropyl(1-cyclopropenylmethyl)amine, from left to right. All except check were subjected to ethylene for 24 hours.
In experiments to study effects of the compounds described herein on the ethylene response in flowering plants, the petunia (Petunia hybridia), a well known ethylene sensitive flower, and the dandelion (Krigia dandelion) were used in the experiments.
FIGS. 7 and 8 present the results of using 100 nl N,N-dipropyl(1-cyclopropenylmethyl)amine on dandelions and petunias, respectively. The Krigia dandelion is commonly known as a weed that can be found along roads during particular times of the year such as spring and summer. It is of interest because ethylene can cause the plant to become dormant and, as a defense mechanism, the plant can become dormant when there is drought. […] The petunia is a well-known ethylene sensitive flower.

[5] = 24 hour exposure at 10 times the minimum amount, daily ethylene challenge

Compound: C1=C(CNCC2=CC2)C1
- minimum concentration required for protection of bananas (bananas [1]): 5.3 nl l^−I
- Minimum Concentration (bananas [1]): 5.7 nl/l
- protection time (bananas [2]): 33 days
- protection time (bananas [2]; [5]): 33 days

Compound: O=C=O [CO2, carbon dioxide]
- concentration in water ([3]; 1 atmosphere and 25° C. (Daniels and Alberty 1955)): 0.0338 M

Compound: CCCCN(CCCC)CC1=CC1 [N,N--Dibutyl (1-Cyclopropenylmethyl)amine]
- minimum concentration required for protection of bananas (bananas [1]): 184 nl l^−I
- Minimum Concentration (bananas [1]): 184 nl/l
- minimum protection value (bananas [1]): 184 nl l^−1
- protection time (bananas [2]): 33 days
- protection time (bananas [2]; [5]): 33 days
- Chlorophyll (% of control) (bananas [4]; Gas control, bananas exposed as a gas 24 hours then ethylene 15 hours): 100 % of control
- inactivation by acids or salts (bananas [4]; different pH values down to pH 1.5 for 1 hour, re-isolated and used in the usual treatments): little or no inactivation occurred
- Chlorophyll (% of control) (bananas [4]; incubated 1 hour in H2O, neutralized, ether extract applied as a gas 24 hours, ethylene 15 hours): 98 % of control
- Chlorophyll (% of control) (bananas [4]; incubated 1 hour in phosphoric acid (.1M, pH 1.5)): 98 % of control
- Chlorophyll (% of control) (bananas [4]; incubated 1 hour in sodium acetate (0.1M, pH 4.75)): 100 % of control
- Chlorophyll (% of control) (bananas [4]; incubated 1 hour in sodium formate (0.1M, pH 3.0)): 100 % of control
- rapidity of receptor inactivation relative to the dimethyl compound (banana peel; FIG. 3, 24 hour exposure): 1.55 ×
- difference between the highest and lowest chlorophyll value of the concentration series (banana peel): 48 % of the control
- protection of bananas compared with the dimethyl compound (banana peel; FIG. 5, aqueous phase, swabbed onto the top half, four days after exposure to ethylene gas): less protection
- chlorophyll level in banana peels against concentration (banana peel): ascending concentrations to have increasing levels of chlorophyll

Compound: CCN(CC)CC1=CC1 [N,N--Diethyl (1-Cyclopropenylmethyl)amine]
- minimum concentration required for protection of bananas (bananas [1]): 59 nl l^−I
- Minimum Concentration (bananas [1]): 59 nl/l
- protection time (bananas [2]): 32 days
- protection time (bananas [2]; [5]): 32 days

Compound: CN(C)CC1=CC1 [N,N--Dimethyl (1-Cyclopropenylmethyl)amine]
- minimum concentration required for protection of bananas (bananas [1]): 73 nl l^−I
- Minimum Concentration (bananas [1]): 73 nl/l
- minimum protection value (bananas [1]): 73 nl l^−1
- protection time (bananas [2]): 34 days
- protection time (bananas [2]; [5]): 34 days
- difference between the highest and lowest chlorophyll value of the concentration series (banana peel): 30.9 % of the control
- chlorophyll level in banana peels against concentration (banana peel): ascending concentrations to have increasingly higher chlorophyll levels

Compound: CCCN(CCC)CC1=CC1 [N,N--Dipropyl (1-Cyclopropenylmethyl)amine]
- minimum concentration required for protection of bananas (bananas [1]): 30 nl l^−I
- Minimum Concentration (bananas [1]): 30 nl/l
- protection time (bananas [2]): 33 days
- protection time (bananas [2]; [5]): 33 days
- ethylene response of bananas after gas exposure (banana peel; FIG. 4, gaseous phase, 10 and 15 μL, after seven days): had already begun showing an ethylene response
- Chlorophyll (% of control) (banana peel; acetic acid + 50 μl, 24 hours, ethylene (300 μl/l) 15 hours, 5 days after ethylene): 43 % of Control
- Chlorophyll (% of control) (banana peel; acetic acid + 200 μl, 24 hours, ethylene (300 μl/l) 15 hours, 5 days after ethylene): 46 % of Control
- Chlorophyll (% of control) (banana peel; applied as gas, ethylene 15 hours, readings at 5 days): 100 % of control
- effectiveness of the carbonate salt compared with other acids (banana peel; banana peel, Table 4): as effective as the other acids
- Chlorophyll (% of control) (banana peel; carbonic + 50 μl, 24 hours, ethylene (300 μl/l) 15 hours, 5 days after ethylene): 47 % of Control
- Chlorophyll (% of control) (banana peel; carbonic acid + 200 μl, 24 hours, ethylene (300 μl/l) 15 hours, 5 days after ethylene): 48 % of Control
- Chlorophyll (% of control) (banana peel; salt with 0.1 M acetic acid buffer (pH 4.75), swab to ½ banana, 24 hours, ethylene 15 hours, readings at 5 days): 33 % of control
- Chlorophyll (% of control) (banana peel; salt with 0.1 M acetic acid, swab to ½ banana, 24 hours, ethylene 15 hours, readings at 5 days): 31 % of control
- Chlorophyll (% of control) (banana peel; salt with 0.1 M formic acid, swab to ½ banana, 24 hours, ethylene 15 hours, readings at 5 days): 30 % of control
- Chlorophyll (% of control) (banana peel; salt with phosphoric acid (pH 1.5), swab to ½ banana, 24 hours, ethylene 15 hours, readings at 5 days): 30 % of control
- effect on petunia flowers exposed to ethylene (Petunia hybridia): appears to withstand the ethylene response

Compound: O=C(O)O [carbonic acid]
- pKa ([3]; corrected for the equilibrium (Cotton et al. 1999)): 3.58
- pKa ([3]; usually published value): 6.38

Compound: N-(1-methylcyclopropene)-aniline
- minimum concentration required for protection of bananas (bananas [1]): 248 nl l^−I
- Minimum Concentration (bananas [1]): 248 nl/l
- protection time (bananas [2]): 32 days
- protection time (bananas [2]; [5]): 32 days
